Molecular target: IDO1 (Homo sapiens, UniProt P14902)
Assay: IDO1 Cellular Assay in HeLa Cells Stimulated with IFNγ
Type: cell-based
Details: about 48 hours, read-out: Hela IC50

IDO1, sequence (P14902 whole entry): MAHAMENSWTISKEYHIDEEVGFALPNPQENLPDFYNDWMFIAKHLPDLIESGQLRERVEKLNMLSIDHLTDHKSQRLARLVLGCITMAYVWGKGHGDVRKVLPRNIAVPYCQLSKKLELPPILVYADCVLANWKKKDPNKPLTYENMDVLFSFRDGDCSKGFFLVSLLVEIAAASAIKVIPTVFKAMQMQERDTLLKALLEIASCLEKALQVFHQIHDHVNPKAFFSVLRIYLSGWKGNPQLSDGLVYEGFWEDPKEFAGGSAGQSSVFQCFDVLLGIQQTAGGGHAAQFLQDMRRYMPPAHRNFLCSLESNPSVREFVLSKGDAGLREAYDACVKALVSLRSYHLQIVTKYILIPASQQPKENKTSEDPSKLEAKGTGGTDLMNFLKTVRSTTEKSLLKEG

Row | IC50 [nM] | SMILES
1 | 51.4 | O=C(c1cc(C(F)(F)F)n[nH]1)N1CCCc2cc(C3(C(=O)Nc4ccc(F)cc4)CCC3)ccc21 [Example 116, N-(4-fluorophenyl)-1-{1-[3-(trifluoromethyl)-1H-pyrazole-5-carbonyl]-1,2,3,4-tetrahydroquinolin-6-yl}cyclobutane-1-carboxamide]
2 | 16.7 | CC(C(=O)Nc1ccc(F)cc1)c1ccc2c(n1)CCCN2C(=O)C1CCOCC1 (stereo not drawn) [Example 166, N-(4-fluorophenyl)-2-[5-(oxane-4-carbonyl)-5,6,7,8-tetrahydro-1,5-naphthyridin-2-yl]propanamide]
3 | 1.49 | O=C(Nc1ccc(F)cc1)C1(c2ccc3c(n2)CCCN3c2ccnc(C(F)(F)F)n2)CCC1 [Example 407, N-(4-fluorophenyl)-1-(5-(2-(trifluoromethyl)pyrimidin-4-yl)-5,6,7,8-tetrahydro-1,5-naphthyridin-2-yl)cyclobutane-1-carboxamide]
4 | 77.9 | Cc1ccc(C(=O)NCc2ccc3c(c2)CCCN3C(=O)CC(C)C)cc1 [Example 5, 4-methyl-N-{[1-(3-methylbutanoyl)-1,2,3,4-tetrahydroquinolin-6-yl]methyl}benzamide]
5 | 34 | O=C(Nc1ccc(F)cc1)C(c1ccc2c(n1)CCCN2C(=O)C1CC1)C1CC1 (stereo not drawn) [Example 260, 2-(5-(cyclopropanecarbonyl)-5,6,7,8-tetrahydro-1,5-naphthyridin-2-yl)-2-cyclopropyl-N-(4-fluorophenyl)acetamide]
6 | 30.3 | C[C@H](C(=O)Nc1ccc(F)cc1)c1ccc2c(c1)CCCN2C(=O)CC(C)(C)O [Example 71, (2S)-N-(4-fluorophenyl)-2-[1-(3-hydroxy-3-methylbutanoyl)-1,2,3,4-tetrahydroquinolin-6-yl]propanamide]
7 | 1.5 | COC(=O)N1CCCc2cc(C3(C(=O)Nc4ccc(F)cn4)CCC3)ccc21 [Example 206, methyl 6-{1-[(5-fluoropyridin-2-yl)carbamoyl]cyclobutyl}-3,4-dihydroquinoline-1(2H)-carboxylate]
8 | 1.1 | CC(C(=O)Nc1ccc(F)cc1)c1ccc2c(n1)CCCN2C(=O)[C@@H]1CCCO1 (single isomer, unassigned) [Example 164]
9 | 1.74 | O=C(Nc1ccc(Cl)cc1)C1(c2ccc3c(n2)CCCN3c2cccc(C(F)(F)F)n2)CCC1 [Example 409, N-(4-chlorophenyl)-1-(5-(6-(trifluoromethyl)pyridin-2-yl)-5,6,7,8-tetrahydro-1,5-naphthyridin-2-yl)cyclobutane-1-carboxamide]

The remaining lines, values behind:

Row | SMILES | IC50 [nM]
10 | O=C(NC1(c2ccc3c(n2)CCCN3C(=O)c2cccc(Cl)c2)CC1)c1ccc(F)cc1 [Example 171, N-{1-[5-(3-chlorobenzene-1-carbonyl)-5,6,7,8-tetrahydro-1,5-naphthyridin-2-yl]cyclopropyl}-4-fluorobenzamide] | 2.3
11 | COC(C(=O)Nc1ccc(F)cn1)c1ccc2c(c1)CCCN2C(=O)C1CC1 (single isomer, unassigned) [Example 156, 2-(1-(cyclopropanecarbonyl)-1,2,3,4-tetrahydroquinolin-6-yl)-N-(5-fluoropyridin-2-yl)-2-methoxyacetamide] | 794
12 | O=C(NC1(c2ccc3c(n2)CCCN3C(=O)[C@H]2CCCO2)CC1)c1ccc(F)cc1 [Example 176, 4-fluoro-N-(1-{5-[(2R)-oxolane-2-carbonyl]-5,6,7,8-tetrahydro-1,5-naphthyridin-2-yl}cyclopropyl)benzamide] | 9.7
13 | CC(NC(=O)c1ccc(F)cc1)c1ccc2c(n1)CCCN2C(=O)c1cccc(Cl)c1Cl (stereo not drawn) [Example 148, N-{1-[5-(2,3-dichlorobenzene-1-carbonyl)-5,6,7,8-tetrahydro-1,5-naphthyridin-2-yl]ethyl}-4-fluorobenzamide] | 2.5
14 | CC(C(=O)Nc1ccc(F)cc1)c1ccc2c(n1)CCCN2C(=O)c1cccc(S(C)(=O)=O)c1 (stereo not drawn) [Example 285, N-(4-fluorophenyl)-2-(5-(3-(methylsulfonyl)benzoyl)-5,6,7,8-tetrahydro-1,5-naphthyridin-2-yl)propanamide] | 4000
15 | O=C(c1cc(C2CC2)n[nH]1)N1CCCc2cc(C3(C(=O)Nc4ccc(F)cc4)CCC3)ccc21 [Example 117, 1-[1-(3-cyclopropyl-1H-pyrazole-5-carbonyl)-1,2,3,4-tetrahydroquinolin-6-yl]-N-(4-fluorophenyl)cyclobutane-1-carboxamide] | 17.7
16 | CC(NC(=O)c1ccc(F)cc1)c1ccc2c(c1)CCCN2C(CO)c1cccc(Cl)c1 (single isomer, unassigned) [Example 95] | 545
17 | CC(C)(O)c1cccc(N2CCCc3nc(C4(NC(=O)c5ccc(F)cc5)CC4)ccc32)n1 [Example 297, 4-fluoro-N-(1-(5-(6-(2-hydroxypropan-2-yl)pyridin-2-yl)-5,6,7,8-tetrahydro-1,5-naphthyridin-2-yl)cyclopropyl)benzamide] | 46.4
18 | C[C@H](C(=O)Nc1ccc(F)cc1)c1ccc2c(c1)CCCN2C(=O)CC(C)(C)C [Example 90, (2S)-2-[1-(3,3-dimethylbutanoyl)-1,2,3,4-tetrahydroquinolin-6-yl]-N-(4-fluorophenyl)propanamide] | 7
19 | CC(NC(=O)c1ccc(F)cc1)c1ccc2c(n1)CCCN2C(=O)c1cccc(C#N)c1 (stereo not drawn) [Example 147, N-{1-[5-(3-cyanobenzene-1-carbonyl)-5,6,7,8-tetrahydro-1,5-naphthyridin-2-yl]ethyl}-4-fluorobenzamide] | 1.7
20 | Cc1nccc(N2CCCc3nc(C4(NC(=O)c5ccc(F)c(F)c5)CC4)ccc32)n1 [Example 302, 3,4-difluoro-N-(1-(5-(2-methylpyrimidin-4-yl)-5,6,7,8-tetrahydro-1,5-naphthyridin-2-yl)cyclopropyl)benzamide] | 2.92
21 | O=C(NCc1ccc2c(c1)CCCN2C(=O)c1cccc(Cl)c1)c1cccc(Cl)c1 [Example 16, 3-chloro-N-((1-(3-chlorobenzoyl)-1,2,3,4-tetrahydroquinolin-6-yl)methyl)benzamide] | 118
22 | CC(NC(=O)c1ccc(Cl)cc1)c1ccc2c(n1)CCCN2C(=O)C1CC1 (single isomer, unassigned) [Example 126, 4-chloro-N-{1-[5-(cyclopropanecarbonyl)-5,6,7,8-tetrahydro-1,5-naphthyridin-2-yl]ethyl}benzamide] | 617
23 | O=C(C1CCCCO1)N1CCCc2nc(C3(C(=O)Nc4ccc(F)cc4)CCC3)ccc21 (single isomer, unassigned) [Example 178, N-(4-fluorophenyl)-1-[5-(oxane-2-carbonyl)-5,6,7,8-tetrahydro-1,5-naphthyridin-2-yl]cyclobutane-1-carboxamide] | 1.6
24 | CC(C)[C@H](O)C(=O)N1CCCc2cc([C@H](C)C(=O)Nc3ccc(F)cc3)ccc21 (single isomer, unassigned) [Example 73] | 381
25 | C[C@@H](NC(=O)c1ccc(F)cc1)c1ccc2c(n1)CCCN2C(=O)[C@H]1CCOC1 [Example 131, 4-fluoro-N-((R)-1-(5-((S)-tetrahydrofuran-3-carbonyl)-5,6,7,8-tetrahydro-1,5-naphthyridin-2-yl)ethyl)benzamide] | 356
26 | CC(C)CC(=O)N1CCCc2cc([C@H](C)NC(=O)c3ccc(Cl)cc3)ccc21 (single isomer, unassigned) [Example 27] | 42.2
27 | COC(=O)N1CCCc2nc(C(C)C(=O)Nc3ccc(F)cc3)ccc21 (stereo not drawn) [Example 220, methyl 6-{1-[(4-fluorophenyl)amino]-1-oxopropan-2-yl}-3,4-dihydro-1,5-naphthyridine-1(2H)-carboxylate] | 1.9
28 | CC(C)n1cc(C(=O)NCc2ccc3c(c2)CCCN3C(=O)c2cccc(Cl)c2)cn1 [Example 19, N-{[1-(3-chlorobenzene-1-carbonyl)-1,2,3,4-tetrahydroquinolin-6-yl]methyl}-1-(propan-2-yl)-1H-pyrazole-4-carboxamide] | 435

Same assay, conditions: read-out: Hela IC50

Row | IC50 [nM] | SMILES
29 | 99.6 | CC(NC(=O)c1ccc(F)cc1)c1ccc2c(n1)CCCN2c1ccc(F)cn1 (stereo not drawn) [Example 376, 4-fluoro-N-(1-(5-(5-fluoropyridin-2-yl)-5,6,7,8-tetrahydro-1,5-naphthyridin-2-yl)ethyl)benzamide]
30 | 25 | Cc1nc(N2CCCc3nc(C(C)NC(=O)c4ccc(Cl)cc4)ccc32)c2cc(Cl)ccc2n1 (stereo not drawn) [Example 359, 5-(6-chloro-2-methylquinazolin-4-yl)-2-(1-(4-chlorobenzamido)ethyl)-5,6,7,8-tetrahydro-1,5-naphthyridin-1-ium 2,2,2-trifluoroacetate]

The remaining lines, values behind:

Row | SMILES | IC50 [nM]
31 | CC(NC(=O)c1ccc(F)cc1)c1ccc2c(n1)CCCN2C(=O)OCCn1ccnc1 (stereo not drawn) [Example 328, 2-(1H-imidazol-1-yl)ethyl 6-(1-(4-fluorobenzamido)ethyl)-3,4-dihydro-1,5-naphthyridine-1(2H)-carboxylate] | 479
32 | CC(NC(=O)c1ccc(F)cc1)c1ccc2c(n1)CCCN2C(=O)OCCc1ccc(Cl)c(Cl)c1 (stereo not drawn) [Example 326, 3,4-dichlorophenethyl 6-(1-(4-fluorobenzamido)ethyl)-3,4-dihydro-1,5-naphthyridine-1(2H)-carboxylate] | 24.3
33 | CC(NC(=O)c1ccc(F)cc1)c1ccc2c(n1)CCCN2c1cc(F)ccn1 (stereo not drawn) [Example 380, 4-fluoro-N-(1-(5-(4-fluoropyridin-2-yl)-5,6,7,8-tetrahydro-1,5-naphthyridin-2-yl)ethyl)benzamide] | 74.5
34 | C[C@H](NC(=O)c1ccc(F)cc1)c1ccc2c(n1)CCCN2c1cccc(OC(C)(C)C)n1 [Example 385, (S)-N-(1-(5-(6-(tert-butoxy)pyridin-2-yl)-5,6,7,8-tetrahydro-1,5-naphthyridin-2-yl)ethyl)-4-fluorobenzamide] | 968
35 | CC(NC(=O)c1ccc(Cl)cc1)c1ccc2c(n1)CCCN2c1nc(Cl)nc2c1CCCC2 (stereo not drawn) [Example 361, 5-(2-chloro-5,6,7,8-tetrahydroquinazolin-4-yl)-2-(1-(4-chlorobenzamido)ethyl)-5,6,7,8-tetrahydro-1,5-naphthyridin-1-ium 2,2,2-trifluoroacetate] | 8.35
36 | Cc1nccc(N2CCCc3nc(C(C)C(=O)Nc4ccc(F)cc4)ccc32)n1 (stereo not drawn) [Example 373, N-(4-fluorophenyl)-2-(5-(2-methylpyrimidin-4-yl)-5,6,7,8-tetrahydro-1,5-naphthyridin-2-yl)propanamide] | 6.38

— US12275729B2 (Merck Sharp & Dohme LLC, priority 2017, dated 2025)
